Values quoted from earlier work in US20090136558A1, “Anti-Restenosis Coatings and Uses Thereof” (VASOTECH, INC., priority 2004, published 2009).

Conditions: through specific binding to individual binding proteins

Compound: CO[C@H]1C[C@@H]2CC[C@@H](C)[C@@](O)(O2)C(=O)C(=O)N2CCCC[C@H]2C(=O)O[C@H]([C@H](C)C[C@@H]2CC[C@@H](O)[C@H](OC)C2)CC(=O)[C@H](C)/C=C(\C)[C@@H](O)[C@@H](OC)C(=O)[C@H](C)C[C@H](C)/C=C/C=C/C=C/1C [sirolimus, Sirolimus]
- retention in blood vessel wall after releasing from stent: retained well in blood vessel wall for up to three days
